Reference: US20220402862A1 (Intellia Therapeutics, Inc., priority 2019, published 2022)

Tests used:
[1] = RNA encapsulation efficiency of LNPs (Ribogreen fluorescence assay); assay type: physicochemical
Procedure, shortened: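 Encapsulation efficiency is (Total RNA − Free RNA)/Total RNA. Free RNA was quantified by RiboGreen fluorescence (488/525 nm, ~10 min, RT, dark) in plain TE buffer; total RNA was quantified after LNP lysis with 0.2% Triton X-100, both against RNA standard curves.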

[2] = Dynamic light scattering of LNPs: Z-average diameter, number average diameter, PDI; assay type: physicochemical
Procedure, shortened: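 Values reported are the Z-average (intensity-weighted mean size), the number-average diameter and the PDI (spread of sizes, 0 = fully uniform). All three came from dynamic light scattering of LNP preparations after dilution in PBS.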

[3] = tested on: Transthyretin (TTR); assay: Serum TTR ELISA in mice after LNP dosing; assay type: in vivo, CD-1 female mice; conditions: guide G282 experiments
Procedure, shortened: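 Serum mouse TTR was quantified by ELISA at 10,000-fold dilution for 0.1 mg/kg and 10,000/2,500-fold for 0.3 mg/kg. Samples came from female CD-1 mice (6–10 weeks) killed 6 or 7 days after a single intravenous LNP dose, usually 0.1 mg/kg.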

[4] = tested on: TTR rat gene; assay: In vivo editing in rat liver, sgRNA targeting TTR (G534), % indel by NGS; set-up: species or system Sprague Dawley female rats; conditions: G534 sgRNA + Cas9 mRNA LNP, Experiment 109
Protocol: Sprague Dawley female rats ranging from 6-7 weeks of age were used in each study. Each animal was weighed and dosing solutions were prepared based on body weight. LNPs were dosed via the lateral tail vein in a volume of 0.35 mL per animal (approximately 2 mL per kilogram body weight). The animals were periodically observed for adverse effects for at least 24 hours post dose.
For studies measuring in vivo editing in liver, animals were dosed at 0.1 mg/kg or 0.3 mg/kg. Animals were euthanized by CO2 asphyxiation 6 days post dose. At necropsy, the liver was collected for editing analysis by NGS and blood was collected into serum separator tubes for serum TTR measurement.
In brief, to quantitatively determine the efficiency of editing at the target location in the genome, genomic DNA was isolated and deep sequencing was utilized to identify the presence of insertions and deletions introduced by gene editing.
PCR primers were designed around the target site (e.g., within B2M), and the genomic area of interest was amplified. Additional PCR was performed according to the manufacturer's protocols (Illumina) to add the necessary chemistry for sequencing. The amplicons were sequenced on an Illumina MiSeq instrument. The reads were aligned to the mouse or rat reference genome (e.g., GRCm38) after eliminating those having low quality scores. The resulting files containing the reads were mapped to the reference genome (BAM files), where reads that overlapped the target region of interest were selected and the number of wild type reads versus the number of reads which contain an insertion, substitution, or deletion was calculated.
The editing percentage (e.g., the “indel efficiency” or “percent indels”) was defined as the total number of sequence reads with insertions or deletions over the total number of sequence reads, including wild type.
In vivo delivery in a rat model was assessed by measuring editing efficiency for materials delivered with formulations including various amine lipid compounds. Cas9 mRNA (SEQ ID NO: 6) was formulated as LNPs with an sgRNA targetting the TTR rat gene (G534, SEQ ID NO: 5). LNPs were formulated and characterized as described in Example 123. Analysis of average particle size, polydispersity (PDI), total RNA content and encapsulation efficiency of RNA are shown in Table 10.
Sprague Dawley female rats were dosed i.v. at 0.1 or 0.3 mg/kg and assessed for editing in liver.

[5] = tested on: Transthyretin (TTR); assay: Serum TTR measurement in rats after LNP dosing; assay type: in vivo, Sprague Dawley female rats; conditions: Experiment 109; for Serum TTR % TSS: rat serum TTR relative to TSS control; for Serum TTR: rat serum, G534 sgRNA + Cas9 mRNA LNP
[6] = LNP with G534 sgRNA and Cas9 mRNA, sg:mRNA 1:2, experiment 109
[7] = LNP, sg:mRNA 1:1, N/P about 6, 50/9/38/3, Table 2, Experiments 2-20

Compound: CCCCC/C=C\C/C=C\CCCCCCCC(=O)OCC(COC(=O)CCC(OCCCCCCCC)OCCCCCCCC)COC(=O)NCCN(CC)CC (stereo not shown) [Compound 12, 3-((4,4-bis(octyloxy)butanoyl)oxy)-2-((((2-(diethylamino)ethyl)carbamoyl)oxy)methyl)propyl (9Z,12Z)-octadeca-9,12-dienoate]
- % E (encapsulation efficiency) [1, 6]: 97%
- Encapsulation (%) ([1]; LNP, sg:mRNA 1:1, N/P about 6, amine lipid/DSPC/cholesterol/PEG-2k-DMG 50/9/38/3, Table 2, Experiments 2-20): 83%
- Number mean (nm) [2, 6]: 62 nm
- PDI [2, 6]: 0.06
- Z-avg (nm) [2, 6]: 80 nm
- Number mean (nm) [2, 7]: 73.4 nm
- PDI [2, 7]: 0.007
- Z-avg (nm) [2, 7]: 88.53 nm
- Serum TTR % TSS ([3]; mouse serum TTR relative to TSS control): 81%
- Serum TTR ([3]; mouse serum, ELISA): 736 µg/mL
- Editing Mean % Indel ([4]; i.v. 0.1 mg/kg): 37.6%
- Editing Mean % Indel ([4]; i.v. 0.3 mg/kg): 62.5%
- Serum TTR % TSS ([5]; G534, i.v. 0.1 mg/kg): 45.9 % TSS
- Serum TTR % TSS ([5]; G534, i.v. 0.3 mg/kg): 5.5 % TSS
- Serum TTR ([5]; i.v. 0.1 mg/kg): 744.2 µg/mL
- Serum TTR ([5]; i.v. 0.3 mg/kg): 89.1 µg/mL
